PMC9786103, “Potent and Selective Inhibition of CYP1A2 Enzyme by Obtusifolin and Its Chemopreventive Effects” (Pharmaceutics, 2022)

How the values were obtained:
Format in all cases: biochemical
rCYP1A2 = target: T1, rCYP1A2 (Homo sapiens, UniProt P05177); assay: Recombinant CYP1A2 inhibition with 9-cis-retinal as substrate; details: substrate 9-cis-retinal
T1 construct: purchased SPMED (Busan, Republic of Korea)
T1 sequence (P05177 1-516): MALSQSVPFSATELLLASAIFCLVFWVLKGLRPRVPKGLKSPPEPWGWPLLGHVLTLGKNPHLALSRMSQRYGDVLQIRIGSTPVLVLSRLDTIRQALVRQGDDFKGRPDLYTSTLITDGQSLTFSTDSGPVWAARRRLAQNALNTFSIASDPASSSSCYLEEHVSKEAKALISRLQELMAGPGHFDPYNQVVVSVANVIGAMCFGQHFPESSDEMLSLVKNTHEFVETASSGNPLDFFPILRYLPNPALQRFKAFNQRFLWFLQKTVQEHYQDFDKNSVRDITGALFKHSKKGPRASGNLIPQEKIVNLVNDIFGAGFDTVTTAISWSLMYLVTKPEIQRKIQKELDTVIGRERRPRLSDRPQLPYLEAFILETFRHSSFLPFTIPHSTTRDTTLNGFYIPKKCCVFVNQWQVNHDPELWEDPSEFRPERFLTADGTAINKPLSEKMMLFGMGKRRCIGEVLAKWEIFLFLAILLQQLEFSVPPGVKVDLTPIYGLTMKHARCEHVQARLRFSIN
From the text: (§1) Table 5 Inhibitory effects (IC50) of obtusifolin against recombinant CYP1A1 and CYP1A2. | column: IC50 (μM)

CYP2B6 = target: T2, CYP2B6 (Homo sapiens, UniProt P20813); assay: Bupropion 6-hydroxylation in human liver microsomes; details: HLMs
T2 construct: Mixtures of pooled HLM, P450 substrates, and obtusifolin; tissue XenoTech XTreme 200; host or cells: pooled human liver microsomes
T2 sequence (P20813 1-491): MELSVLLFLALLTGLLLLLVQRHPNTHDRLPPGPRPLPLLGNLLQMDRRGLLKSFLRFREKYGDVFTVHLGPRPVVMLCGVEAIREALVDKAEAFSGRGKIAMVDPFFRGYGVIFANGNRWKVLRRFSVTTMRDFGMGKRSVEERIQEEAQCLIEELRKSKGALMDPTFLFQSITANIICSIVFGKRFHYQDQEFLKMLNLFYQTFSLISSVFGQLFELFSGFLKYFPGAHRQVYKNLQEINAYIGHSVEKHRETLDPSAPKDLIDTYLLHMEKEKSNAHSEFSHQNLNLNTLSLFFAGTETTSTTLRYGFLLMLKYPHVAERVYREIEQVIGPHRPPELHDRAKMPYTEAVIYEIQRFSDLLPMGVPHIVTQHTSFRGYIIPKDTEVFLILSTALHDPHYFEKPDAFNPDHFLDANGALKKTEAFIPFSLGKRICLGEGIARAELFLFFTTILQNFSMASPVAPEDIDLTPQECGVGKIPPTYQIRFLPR
Experimental: (§3) The following P450 isoform-specific substrates were used: coumarin (CYP2A6); bupropion (CYP2B6); amodiaquine (CYP2C8); tolbutamide (CYP2C9); omeprazole (CYP2C19); dextromethorphan (CYP2D6); chlorzoxazone (CYP2E1); and midazolam (CYP3A). […] NGS was introduced to start the reaction, which was followed by an additional incubation (15 min). Following reaction termination, aliquots of the supernatants were analyzed with LC-MS/MS.
(§4) Reverse phase column (Kinetex XB-C18, 100 × 2.10 mm; Phenomenex, Torrance, CA, USA) and triple-quadrupole mass spectrometer (LCMS 8060, Shimadzu, Kyoto, Japan) with an ultra high-performance LC system (Nexera X2, Shimadzu) analyze all the metabolites. […] For each metabolite, quantitation was carried out in selected reaction monitoring (SRM) mode using the following precursor-to-product ion transition: m/z 152 > 110 for acetaminophen (CYP1A2), m/z 214 > 186 for resorufin (CYP1A1 and CYP1A2), m/z 163 > 107 for 7-hydroxycoumarin (CYP2A6), m/z 256 > 238 for 6-hydroxybupropion (CYP2B6), m/z 328 > 283 for N-desethylamodiaquine (CYP2C8), m/z 287 > 89 for 5-hydroxytolbutamide (CYP2C9), m/z 362 > 214 for 4-hydroxyomeprazole (CYP2C9), m/z 258 > 157 for dextrorphan (CYP2D6), m/z 184 > 120 for 6-hydroxychlorzoxazone (CYP2E1), m/z 342 > 203 for 1′-hydroxymidazolam (CYP3A), and m/z 295 > 100 for trimipramine (IS) [23, 24].

rCYP1A1 = target: T3, rCYP1A1 (Homo sapiens, UniProt P04798); assay: Recombinant CYP1A1 inhibition with 9-cis-retinal as substrate; details: substrate 9-cis-retinal
T3 construct: purchased SPMED (Busan, Republic of Korea)
T3 sequence (P04798 1-512): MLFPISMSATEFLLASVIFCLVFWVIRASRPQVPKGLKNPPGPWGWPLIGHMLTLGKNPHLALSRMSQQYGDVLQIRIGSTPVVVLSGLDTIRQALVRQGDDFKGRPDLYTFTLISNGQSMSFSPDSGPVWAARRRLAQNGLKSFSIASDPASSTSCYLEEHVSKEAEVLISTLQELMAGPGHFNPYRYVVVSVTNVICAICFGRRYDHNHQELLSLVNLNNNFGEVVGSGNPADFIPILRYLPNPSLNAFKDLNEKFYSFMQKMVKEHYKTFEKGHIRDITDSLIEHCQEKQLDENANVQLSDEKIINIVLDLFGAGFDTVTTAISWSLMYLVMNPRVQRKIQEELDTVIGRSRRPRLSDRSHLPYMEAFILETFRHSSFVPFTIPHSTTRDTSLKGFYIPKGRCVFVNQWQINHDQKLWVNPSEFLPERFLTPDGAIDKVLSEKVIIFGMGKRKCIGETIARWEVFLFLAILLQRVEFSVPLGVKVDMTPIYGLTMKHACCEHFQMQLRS
From the text: as §1

CYP2D6 = target: T4, CYP2D6 (Homo sapiens, UniProt P10635); assay: Dextromethorphan O-demethylation in human liver microsomes; details: HLMs
T4 construct: Mixtures of pooled HLM, P450 substrates, and obtusifolin; tissue XenoTech XTreme 200; host or cells: pooled human liver microsomes
T4 sequence (P10635 whole entry): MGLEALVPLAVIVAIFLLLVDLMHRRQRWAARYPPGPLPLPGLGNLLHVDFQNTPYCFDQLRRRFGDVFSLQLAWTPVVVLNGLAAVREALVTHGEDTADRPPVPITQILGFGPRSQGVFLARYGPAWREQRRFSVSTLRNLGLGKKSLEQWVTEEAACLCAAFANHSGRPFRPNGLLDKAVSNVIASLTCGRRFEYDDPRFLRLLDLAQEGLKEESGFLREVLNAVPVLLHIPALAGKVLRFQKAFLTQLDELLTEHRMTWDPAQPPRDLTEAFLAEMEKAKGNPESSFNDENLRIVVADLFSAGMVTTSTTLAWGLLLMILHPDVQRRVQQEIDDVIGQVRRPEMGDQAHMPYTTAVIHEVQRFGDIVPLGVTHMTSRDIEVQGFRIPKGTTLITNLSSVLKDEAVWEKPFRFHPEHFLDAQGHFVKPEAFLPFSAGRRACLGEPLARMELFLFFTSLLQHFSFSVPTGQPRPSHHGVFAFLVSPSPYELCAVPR
Experimental: as §3, §4

CYP3A = CYP3A (Homo sapiens, UniProt P08684); assay: Midazolam 1'-hydroxylation in human liver microsomes; details: pooled human liver microsomes, probe midazolam, HLMs
CYP3A, sequence (P08684 2-503): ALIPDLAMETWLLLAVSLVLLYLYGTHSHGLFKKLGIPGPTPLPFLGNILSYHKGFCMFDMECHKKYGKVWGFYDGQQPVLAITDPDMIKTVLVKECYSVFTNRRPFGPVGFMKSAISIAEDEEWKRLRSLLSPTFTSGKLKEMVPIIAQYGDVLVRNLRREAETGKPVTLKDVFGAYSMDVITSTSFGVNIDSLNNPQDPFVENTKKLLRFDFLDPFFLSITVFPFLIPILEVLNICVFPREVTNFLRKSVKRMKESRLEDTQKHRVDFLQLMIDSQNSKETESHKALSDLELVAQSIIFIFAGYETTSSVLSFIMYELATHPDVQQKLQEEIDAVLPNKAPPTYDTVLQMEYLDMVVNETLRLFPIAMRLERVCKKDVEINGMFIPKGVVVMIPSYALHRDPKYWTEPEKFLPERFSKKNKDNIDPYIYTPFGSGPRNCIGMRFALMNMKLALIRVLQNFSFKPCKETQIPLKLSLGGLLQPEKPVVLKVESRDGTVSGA
Experimental: as §3, §4

[1] = target: T5, recombinant CYP1A2 (rCYP1A2) (Homo sapiens, UniProt P05177); assay: Inhibition of CYP1A2-mediated POD in recombinant CYP1A2; details: rCYP1A2 10 pmol/mL
T5 construct: purchased SPMED (Busan, Republic of Korea)
T5 sequence (P05177 1-516): T1 sequence (P05177 1-516)
From the text: (§2) The other conditions were similar to those used in the P450 inhibition study, as described earlier.
WinNonlin software (Pharsight, Mountain View, CA, USA) was used to calculate IC50 values. Based on Lineweaver–Burk double reciprocal plots, secondary plots of Lineweaver–Burk plots versus obtusifolin concentrations, and visual inspection of Dixon plots, the type of inhibition and apparent kinetic parameters for inhibitory activity (Ki) were estimated.

CYP1A2 = target: T6, CYP1A2 (Homo sapiens, UniProt P05177); assay: Time-dependent inhibition assay (IC50 shift) of CYP1A2-mediated POD in pHLMs; parameters: tissue XenoTech XTreme 200; host or cells: pooled human liver microsomes
T6 sequence (P05177 1-516): T1 sequence (P05177 1-516)
Experimental: The IC50 shift approach was applied to assess the time-dependent inhibition of CYP1A2 by obtusifolin [18]. For 30 min, obtusifolin was pre-incubated with pHLMs in the presence of NGS. The reaction was started with 100 µM phenacetin and then incubated for 15 min. Following reaction termination and centrifugation, aliquots of the supernatants were subjected to LC-MS/MS analysis.

CYP1A1 and CYP1A2 = assay: CYP1A1- and CYP1A2-mediated POD and EROD with recombinant enzymes (summary); details: human, summary bound
Experimental: as §2
The inhibitory effects of obtusifolin on the CYP1A-mediated ethoxyresorufin O-deethylation (EROD) activity of rCYP1A1 and rCYP1A2 enzymes (10 pmol/mL) were investigated. […] The other conditions, except for the incubation time (20 min), were similar to those used in the P450 inhibition study, as described earlier.

IC50 (rCYP1A2): 150 ± 30 nM
IC50 (CYP2B6): > 50000 nM
IC50 (rCYP1A1): > 10000 nM
IC50 (CYP2D6): > 50000 nM
IC50 at 15 min (CYP3A): > 50000 nM
IC50 ([1]; phenacetin, read-out: IC50, CYP1A2-mediated phenacetin O-deethylation): 370 ± 110 nM
Ki ([1]; read-out: Ki, CYP1A2-mediated phenacetin O-deethylation): 210 ± 53 nM
IC50 (CYP1A2; 30 min preincubation with pHLMs and NGS, phenacetin 100 µM): 130 nM
Time dependence of CYP1A2 inhibition (CYP1A2; IC50 shift approach): time-independent inhibition
IC50 shift at 15 min (CYP1A2; human, pooled human liver microsomes, probe phenacetin (100 µM), 30 min preincubation with NGS vs without, pHLMs): 1.46
IC50 (CYP1A1 and CYP1A2): < 570 nM
Compound: COc1c(O)c(C)cc2c1C(=O)c1c(O)cccc1C2=O [Obtusifolin, obtusifolin]
